Reference: publication PMC12969314 (European journal of medicinal chemistry, 2022)

Key:
[1] = Human liver microsomal intrinsic clearance; format: in vitro ADME; conditions: for CLint scaled / Predicted hepatic clearance hCLHEP: human; for CLint scaled: liver microsomes, Intrinsic clearance hCLINT; for Predicted hepatic clearance hCLHEP: well-stirred organ CL model, binding terms excluded
[2] = Mouse liver microsomal intrinsic clearance; format: in vitro ADME; conditions: for CLint scaled: liver microsomes; for Predicted hepatic clearance mCLHEP: well-stirred organ CL model, binding terms excluded
D4 receptor = molecular target: T1, D4 receptor (Homo sapiens, UniProt P21917); format: binding; conditions: for selectivity against the dopamine receptor family: σ1 over D1-5
T1 sequence (P21917 1-419): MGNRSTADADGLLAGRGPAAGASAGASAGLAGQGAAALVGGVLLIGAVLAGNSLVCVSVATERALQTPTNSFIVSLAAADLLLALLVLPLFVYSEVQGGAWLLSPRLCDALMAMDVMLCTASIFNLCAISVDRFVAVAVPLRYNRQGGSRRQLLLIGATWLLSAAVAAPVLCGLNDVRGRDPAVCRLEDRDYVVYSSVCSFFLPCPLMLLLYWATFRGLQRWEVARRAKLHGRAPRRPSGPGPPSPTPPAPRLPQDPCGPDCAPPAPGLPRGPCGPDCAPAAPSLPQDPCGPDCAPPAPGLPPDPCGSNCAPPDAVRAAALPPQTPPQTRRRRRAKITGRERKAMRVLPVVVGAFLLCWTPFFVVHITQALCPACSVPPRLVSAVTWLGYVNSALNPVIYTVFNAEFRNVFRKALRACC

DAT = DAT (Homo sapiens, UniProt Q01959); assay: PDSP panel binding, DAT; conditions: for selectivity versus DAT: σ1 over DAT
σ2 receptor = σ2 receptor (Homo sapiens, UniProt Q5BJF2); assay: σ2 receptor radioligand binding, [3H]DTG, HEK293 membranes; conditions: ratio, σ1 over σ2
[3] = Mouse plasma protein binding, equilibrium dialysis; format: in vitro ADME

Chain of DAT (Q01959 whole entry, species assumed): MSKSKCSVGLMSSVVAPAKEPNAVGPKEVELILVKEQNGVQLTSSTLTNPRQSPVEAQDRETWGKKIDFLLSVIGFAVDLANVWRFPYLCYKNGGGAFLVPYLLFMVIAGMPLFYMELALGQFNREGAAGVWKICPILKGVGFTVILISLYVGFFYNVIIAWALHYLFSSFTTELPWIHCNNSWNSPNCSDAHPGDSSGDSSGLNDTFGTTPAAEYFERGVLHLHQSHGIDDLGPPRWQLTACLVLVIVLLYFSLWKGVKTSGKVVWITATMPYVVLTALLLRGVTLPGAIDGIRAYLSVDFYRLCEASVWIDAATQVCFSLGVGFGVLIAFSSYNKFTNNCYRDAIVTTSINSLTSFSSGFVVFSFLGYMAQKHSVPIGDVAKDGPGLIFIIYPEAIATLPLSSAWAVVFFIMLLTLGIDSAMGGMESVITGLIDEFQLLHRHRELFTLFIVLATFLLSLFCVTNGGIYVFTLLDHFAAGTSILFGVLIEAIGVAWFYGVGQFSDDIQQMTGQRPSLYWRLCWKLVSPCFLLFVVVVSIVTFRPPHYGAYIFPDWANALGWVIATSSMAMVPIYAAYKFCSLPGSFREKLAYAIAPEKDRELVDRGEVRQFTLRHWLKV
Chain of σ2 receptor (Q5BJF2 whole entry, species assumed): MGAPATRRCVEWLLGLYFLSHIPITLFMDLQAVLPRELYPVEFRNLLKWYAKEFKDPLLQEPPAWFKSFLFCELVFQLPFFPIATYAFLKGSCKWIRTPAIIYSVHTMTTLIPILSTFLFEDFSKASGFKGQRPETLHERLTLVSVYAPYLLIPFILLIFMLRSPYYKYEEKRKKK

Row | CLint scaled ([1]; human liver microsomes) | Predicted hepatic clearance hCLHEP [1] | CLint scaled [2] | Predicted hepatic clearance mCLHEP [2] | SMILES | other results
1 | 42.1 mL/min/kg | 13.6 mL/min/kg | 321 mL/min/kg | 70.3 mL/min/kg | Fc1ccc(OC[C@@H]2CN(Cc3cn4ccccc4n3)CCO2)cc1F [Compound 17k, (S)-2-((3,4-difluorophenoxy)methyl)-4-(imidazo[1,2-a]pyridin-2-ylmethyl)morpholine] | –
2 | – | <10 mL/min/kg | – | 57.4 mL/min/kg | Fc1ccc(COC2CCN(Cc3cn4ccccc4n3)CC2)cc1F [Compound 17a, 2-((4-((3,4-difluorobenzyl)oxy)piperidin-1-yl)methyl)imidazo[1,2-a]pyridine] | –
3 | – | – | – | – | Cc1cc(NC(=O)CN2CCC3(CCCN3Cc3ccc(F)c(F)c3)C2)ccc1F (stereo not drawn) [Compound 24e, 2-(1-(3,4-difluorobenzyl)-1,7-diazaspiro[4.4]nonan-7-yl)-N-(4-fluoro-3-methylphenyl)acetamide] | Ki (D4 receptor): > 10 µM
4 | – | – | – | – | c1ccc(OC[C@@H]2CN(Cc3ccc4[nH]ccc4c3)CCO2)cc1 [Compound 4] | selectivity for D4 versus σ1 (D4 receptor; D4 over σ1): ~ 13 fold
5 | – | – | – | – | Fc1ccc(CN2CCCC3(CCN(Cc4cc5ccc(Cl)cc5[nH]4)C3)C2)cc1F (stereo not drawn) [Compound 25c, 2-((6-chloro-1H-indol-2-yl)methyl)-7-(3,4-difluorobenzyl)-2,7-diazaspiro[4.5]decane] | Ki (D4 receptor): > 10 µM
6 | < 20 mL/min/kg | <10 mL/min/kg | < 20 mL/min/kg | <16 mL/min/kg | Cn1cnc2cc(CN3CCC(OCc4ccc(Cl)c(F)c4)CC3)ccc21 [Compound 11b, 5-((4-((4-chloro-3-fluorobenzyl)oxy)piperidin-1-yl)methyl)-1-methyl-1H-benzo[d]imidazole] | –
7 | – | 12.5 mL/min/kg | – | 48.2 mL/min/kg | Cn1ncc2cc(CN3CCC(OCc4ccc(F)c(F)c4)CC3)ccc21 [Compound 13a, 5-((4-((3,4-difluorobenzyl)oxy)piperidin-1-yl)methyl)-1-methyl-1H-indazole] | –
8 | 1130 mL/min/kg | 19.7 mL/min/kg | 1190 mL/min/kg | 83.7 mL/min/kg | COc1ccc(CN2CCC[C@H](OCc3ccc(C)cc3)C2)cc1F [Compound 19e, (S)-1-(3-fluoro-4-methoxybenzyl)-3-((4-methylbenzyl)oxy)piperidine] | –
9 | 69.3 mL/min/kg | 15.6 mL/min/kg | 150 mL/min/kg | 56.3 mL/min/kg | FC(F)(F)c1cccc(COC2CCN(Cc3cn4ccccc4n3)CC2)c1 [Compound 17c, 2-((4-((3-(trifluoromethyl)benzyl)oxy)piperidin-1-yl)methyl)imidazo[1,2-a]pyridine] | –
10 | < 30 mL/min/kg | 10.8 mL/min/kg | – | 43.3 mL/min/kg | Fc1ccc(COC2CCN(Cc3cc4ccc(Cl)cc4[nH]3)CC2)cc1F [Compound 14a, 6-chloro-2-((4-((3,4-difluorobenzyl)oxy)piperidin-1-yl)methyl)-1H-indole] | –
11 | 842 mL/min/kg | 19.6 mL/min/kg | 485 mL/min/kg | 76.0 mL/min/kg | Cc1ccc(CO[C@H]2CCCN(Cc3ccc(C#N)cc3)C2)cc1 [Compound 19f, (S)-4-((3-((4-methylbenzyl)oxy)piperidin-1-yl)methyl) benzonitrile] | selectivity against the dopamine receptor family (D4 receptor): > 74 fold; selectivity versus DAT (DAT): 300
12 | 130 mL/min/kg | 17.4 mL/min/kg | 199 mL/min/kg | 62.0 mL/min/kg | Cc1nc(CN2CCC(OCc3ccc(Cl)c(F)c3)CC2)c2ccccn12 [Compound 16b, 1-((4-((4-chloro-3-fluorobenzyl)oxy)piperidin-1-yl)methyl)-3-methylimidazo[1,5-a]pyridine] | –
13 | 964 mL/min/kg | 19.7 mL/min/kg | > 2400 mL/min/kg | 86.8 mL/min/kg | COc1ccc(CN2CCC[C@H](OCc3ccc(F)c(C)c3)C2)cc1F [Compound 19a, (S)-3-((4-fluoro-3-methylbenzyl)oxy)-1-(3-fluoro-4-methoxybenzyl)piperidine] | –
14 | 334 mL/min/kg | 19.0 mL/min/kg | 545 mL/min/kg | 77.3 mL/min/kg | Cc1ccccc1CO[C@H]1CCCN(Cc2ccc3c(cnn3C)c2)C1 [Compound 13g, (S)-1-methyl-5-((3-((2-methylbenzyl)oxy)piperidin-1-yl)methyl)-1H-indazole] | –
15 | – | – | – | – | Cc1c(Cl)cccc1NC(=O)CN1CCC2(CCCN2Cc2ccc(F)c(F)c2)CC1 [Compound 24a, N-(3-chloro-2-methylphenyl)-2-(1-(3,4-difluorobenzyl)-1,8-diazaspiro[4.5]decan-8-yl)acetamide] | Ki (D4 receptor): > 10 µM
16 | – | 13.7 mL/min/kg | – | 43.8 mL/min/kg | Cn1ncc2cc(CN3CCC(OCc4ccc(Cl)c(F)c4)CC3)ccc21 [Compound 13b, 5-((4-((4-chloro-3-fluorobenzyl)oxy)piperidin-1-yl)methyl)-1-methyl-1H-indazole] | –
17 | – | – | – | – | c1cncc(COC2CCN(Cc3cn4ccccc4n3)CC2)c1 [Compound 17e, 2-((4-(pyridin-3-ylmethoxy)piperidin-1-yl)methyl)imidazo [1,2-a]pyridine] | Ki (D4 receptor): 2.29 µM
18 | < 30 mL/min/kg | 11.5 mL/min/kg | 72 mL/min/kg | 40.0 mL/min/kg | Fc1cc(COC2CCN(Cc3ccc4[nH]ncc4c3)CC2)ccc1Cl [Compound 12b, 5-((4-((4-chloro-3-fluorobenzyl)oxy)piperidin-1-yl)methyl)-1H-indazole] | Intrinsic clearance hCLINT ([1]; human liver microsomes): 26.8 mL/min/kg
19 | – | 15.3 mL/min/kg | – | 43.8 mL/min/kg | Cn1ncc2cc(CN3CCC(OCc4cccc(C(F)(F)F)c4)CC3)ccc21 [Compound 13c, 1-Methyl-5-((4-((3-(trifluoromethyl)benzyl)oxy)piperidin-1-yl)methyl)-1H-indazole] | –
20 | – | 14.3 mL/min/kg | – | 69.6 mL/min/kg | Cc1cc(NC(=O)CN2CCC(OCc3ccc(F)c(F)c3)CC2)ccc1F [Compound 18d, 2-(4-((3,4-difluorobenzyl)oxy)piperidin-1-yl)-N-(4-fluoro-3-methylphenyl)acetamide] | selectivity σ1:σ2 (σ2 receptor): ~ 1.4; Stability in mouse plasma (mPPB column) [3]: c
21 | 602 mL/min/kg | 19.5 mL/min/kg | 855 mL/min/kg | 81.5 mL/min/kg | Cc1cc(NC(=O)CN2CCC3(CCCN(Cc4ccc(F)c(F)c4)C3)C2)ccc1F (stereo not drawn) [Compound 24f, 2-(7-(3,4-difluorobenzyl)-2,7-diazaspiro[4.5]decan-2-yl)-N-(4-fluoro-3-methylphenyl)acetamide] | Ki (D4 receptor): > 10 µM; Stability in mouse plasma (mPPB column) [3]: c
22 | – | 13.8 mL/min/kg | – | 46.7 mL/min/kg | Fc1cc(COC2CCN(Cc3cn4ccccc4n3)CC2)ccc1Cl [Compound 17b, 2-((4-((4-chloro-3-fluorobenzyl)oxy)piperidin-1-yl)methyl)imidazo[1,2-a]pyridine] | –
23 | – | 17.6 mL/min/kg | – | 68.6 mL/min/kg | Cc1c(Cl)cccc1NC(=O)CN1CCC(OCc2ccc(F)c(F)c2)CC1 [Compound 18a, N-(3-chloro-2-methylphenyl)-2-(4-((3,4-difluorobenzyl)oxy)piperidin-1-yl)acetamide] | –
24 | 1400 mL/min/kg | 19.8 mL/min/kg | > 2400 mL/min/kg | 86.8 mL/min/kg | Cc1ccc(CO[C@H]2CCCN(Cc3cccc(F)c3)C2)cc1 [Compound 19g, (S)-1-(3-fluorobenzyl)-3-((4-methylbenzyl)oxy)piperidine] | Ki (D4 receptor): > 10 µM; selectivity against the dopamine receptor family (D4 receptor): > 74 fold; selectivity σ1:σ2 (σ2 receptor): 31; Ki (DAT): 8.81 µM; selectivity versus DAT (DAT): 473
